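Results reflect a 48-hour exposure of cells in 96-well plates to compound at five concentrations. GI50 is the concentration that inhibits growth by half.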 Calls of active or inactive are those of the source. Rule as the data show it: active = GI50 up to about 1.1 µM and inactive = higher.
Tests used:
Experiment in all cases: NCI tumour cell line growth inhibition, 48 h
[1] = tested on: NCI-H23
[2] = tested on: SK-MEL-2
[3] = tested on: SF-268
[4] = tested on: TK-10
[5] = tested on: MDA-MB-231
[6] = tested on: SK-OV-3
[7] = tested on: T47D
[8] = tested on: HL-60
[9] = tested on: MDA-MB-435
[10] = tested on: Hs-578T
[11] = tested on: Malme-3M
[12] = tested on: IGROV-1
[13] = tested on: CCRF-CEM
[14] = tested on: HOP-92
[15] = tested on: LOX IMVI
[16] = tested on: HT-29
[17] = tested on: PC-3
[18] = tested on: DU-145
[19] = tested on: SF-539
[20] = tested on: ACHN
[21] = tested on: SNB-19
[22] = tested on: SW-620
[23] = tested on: OVCAR-8
[24] = tested on: 786-0
[25] = tested on: SK-MEL-28
[26] = tested on: KM12
[27] = tested on: UACC-62
[28] = tested on: NCI-H460
[29] = tested on: M14
[30] = tested on: SK-MEL-5
[31] = tested on: UACC-257
[32] = tested on: SF-295
[33] = tested on: A549
[34] = tested on: K562
[35] = tested on: SNB-75
[36] = tested on: MCF7
[37] = tested on: HOP-62
[38] = tested on: RXF 393
[39] = tested on: SR
[40] = tested on: RPMI-8226
[41] = tested on: SN12C
[42] = tested on: EKVX
[43] = tested on: HCT-15
[44] = tested on: OVCAR-4
[45] = tested on: MOLT-4
[46] = tested on: COLO 205
[47] = tested on: CAKI-1
[48] = tested on: MDA-N
[49] = tested on: HCC 2998
[50] = tested on: OVCAR-3
[51] = tested on: U-251
[52] = tested on: UO-31
[53] = tested on: OVCAR-5
[54] = tested on: NCI-H522
[55] = tested on: A498
[56] = tested on: NCI-H226
[57] = tested on: HCT-116
[58] = tested on: NCI/ADR-RES

## COc1ccc2cc3[n+](cc2c1OC)CCc1cc2c(cc1-3)OCO2
[1]
  GI50: 7.93 µM (inactive)
[2]
  GI50: 23.8 µM (inactive)
[3]
  GI50: 6.75 µM (inactive)
[4]
  GI50: 85.5 µM (inactive)
[5]
  GI50: 21.5 µM (inactive)
[6]
  GI50: 78 µM (inactive)
[7]
  GI50: 5.26 µM (inactive)
[8]
  GI50: 18.2 µM (inactive)
[9]
  GI50: 12.6 µM (inactive)
[10]
  GI50: 11.3 µM (inactive)
[11]
  GI50: 7.6 µM (inactive)
[12]
  GI50: 55.5 µM (inactive)
[13]
  GI50: 18.4 µM (inactive)
[14]
  GI50: 24.5 µM (inactive)
[15]
  GI50: 59.6 µM (inactive)
[16]
  GI50: 38.8 µM (inactive)
[17]
  GI50: 20.3 µM (inactive)
[18]
  GI50: 35.7 µM (inactive)
[19]
  GI50: 52.2 µM (inactive)
[20]
  GI50: > 100 µM (inactive)
[21]
  GI50: 5.69 µM (inactive)
[22]
  GI50: 55.3 µM (inactive)
[23]
  GI50: 16.8 µM (inactive)
[24]
  GI50: 45 µM (inactive)
[25]
  GI50: 14.7 µM (inactive)
[26]
  GI50: 6.11 µM (inactive)
[27]
  GI50: 16 µM (inactive)
[28]
  GI50: 14.9 µM (inactive)
[29]
  GI50: 39.8 µM (inactive)
[30]
  GI50: 4.78 µM (inactive)

## Cc1ccc(C(=O)/C=C(\O)C(=O)NC23CC4CC(CC(C4)C2)C3)cc1
[1]
  GI50: 5.43 µM (inactive)
[31]
  GI50: > 10 µM (inactive)
[32]
  GI50: 5.86 µM (inactive)
[3]
  GI50: > 10 µM (inactive)
[4]
  GI50: > 10 µM (inactive)
[33]
  GI50: > 10 µM (inactive)
[5]
  GI50: 8.71 µM (inactive)
[34]
  GI50: 5.64 µM (inactive)
[35]
  GI50: > 10 µM (inactive)
[6]
  GI50: > 10 µM (inactive)
[7]
  GI50: > 10 µM (inactive)
[36]
  GI50: 7.41 µM (inactive)
[8]
  GI50: 4.25 µM (inactive)
[37]
  GI50: 6.7 µM (inactive)
[9]
  GI50: > 10 µM (inactive)
[11]
  GI50: > 10 µM (inactive)
[13]
  GI50: 5.92 µM (inactive)
[38]
  GI50: > 10 µM (inactive)
[14]
  GI50: > 10 µM (inactive)
[39]
  GI50: 3.62 µM (inactive)
[15]
  GI50: 0.851 µM (active)
[40]
  GI50: 8.61 µM (inactive)
[16]
  GI50: > 10 µM (inactive)
[17]
  GI50: 9.79 µM (inactive)
[41]
  GI50: 7.59 µM (inactive)
[42]
  GI50: > 10 µM (inactive)
[18]
  GI50: 9.95 µM (inactive)
[43]
  GI50: 6.27 µM
[44]
  GI50: > 10 µM (inactive)
[45]
  GI50: 3.86 µM (inactive)
[46]
  GI50: > 10 µM (inactive)
[22]
  GI50: > 10 µM (inactive)
[23]
  GI50: > 10 µM (inactive)
[47]
  GI50: > 10 µM (inactive)
[24]
  GI50: > 10 µM (inactive)
[25]
  GI50: > 10 µM (inactive)
[26]
  GI50: > 10 µM (inactive)
[27]
  GI50: 9.02 µM (inactive)
[48]
  GI50: > 10 µM (inactive)
[29]
  GI50: > 10 µM (inactive)
[30]
  GI50: > 10 µM (inactive)
[49]
  GI50: > 10 µM (inactive)

## O=c1c2cc([N+](=O)[O-])ccc2n2n1CCCCC2
[50]
  GI50: > 100 µM (inactive)
[1]
  GI50: > 100 µM (inactive)
[51]
  GI50: > 100 µM (inactive)
[31]
  GI50: > 100 µM (inactive)
[32]
  GI50: > 100 µM (inactive)
[3]
  GI50: > 100 µM (inactive)
[4]
  GI50: 61.8 µM (inactive)
[33]
  GI50: > 100 µM (inactive)
[5]
  GI50: > 100 µM (inactive)
[34]
  GI50: > 100 µM (inactive)
[35]
  GI50: > 100 µM (inactive)
[6]
  GI50: > 100 µM (inactive)
[52]
  GI50: > 100 µM (inactive)
[53]
  GI50: > 100 µM (inactive)
[8]
  GI50: > 100 µM (inactive)
[37]
  GI50: > 100 µM (inactive)
[9]
  GI50: > 100 µM (inactive)
[10]
  GI50: > 100 µM (inactive)
[11]
  GI50: > 100 µM (inactive)
[12]
  GI50: > 100 µM (inactive)
[13]
  GI50: > 100 µM (inactive)
[38]
  GI50: > 100 µM (inactive)
[54]
  GI50: > 100 µM (inactive)
[14]
  GI50: > 100 µM (inactive)
[39]
  GI50: > 100 µM (inactive)
[15]
  GI50: > 100 µM (inactive)
[40]
  GI50: > 100 µM (inactive)
[16]
  GI50: > 100 µM (inactive)
[17]
  GI50: > 100 µM (inactive)
[41]
  GI50: > 100 µM (inactive)
[42]
  GI50: > 100 µM (inactive)
[18]
  GI50: > 100 µM (inactive)
[19]
  GI50: > 100 µM (inactive)
[20]
  GI50: > 100 µM (inactive)
[43]
  GI50: > 100 µM
[21]
  GI50: > 100 µM (inactive)
[44]
  GI50: > 100 µM (inactive)
[45]
  GI50: > 100 µM (inactive)
[55]
  GI50: > 100 µM (inactive)
[46]
  GI50: > 100 µM (inactive)
[22]
  GI50: > 100 µM (inactive)
[56]
  GI50: > 100 µM (inactive)
[23]
  GI50: > 100 µM (inactive)
[47]
  GI50: > 100 µM (inactive)
[24]
  GI50: > 100 µM (inactive)
[57]
  GI50: > 100 µM (inactive)
[25]
  GI50: > 100 µM (inactive)
[26]
  GI50: > 100 µM (inactive)
[27]
  GI50: > 100 µM (inactive)
[28]
  GI50: > 100 µM (inactive)
[48]
  GI50: > 100 µM (inactive)
[29]
  GI50: > 100 µM (inactive)
[30]
  GI50: > 100 µM (inactive)
[58]
  GI50: > 100 µM (inactive)
[49]
  GI50: > 100 µM (inactive)

Reference: ChEMBL document CHEMBL1201862, “PubChem BioAssay data set” (2004)
